Test system: PBMCs of ten HLA-A2+ healthy subjects
Test: In vitro stimulation of peptide-specific T cells in PBMCs of healthy subjects, IFN-γ release by ELISA
Assay type: cell-based, human
Conditions: PBMCs stimulated 14 days with peptide 20 μg/mL, response to T2 cells pre-loaded with peptide 5 μg/mL
Description: Ten HLA-A2+ prostate cancer patients and ten HLA-A2+ healthy subjects were enrolled in this study after written informed consent was obtained. All protocols were approved by the Institutional Review Board (IRB) of Baylor College of Medicine before commencing studies. 20 mL of peripheral blood was obtained from each person, and peripheral blood mononuclear cells (PBMCs) were isolated by density gradient centrifugation using Lymphoprep (Nycomed Pharma AS; Oslo, Norway). The freshly isolated PBMCs were cryopreserved for later use in 1 mL freezing medium containing 90% FCS and 10% dimethyl sulfoxide (DMSO) at −140° C. The expression of HLA-A2 molecules on PBMCs obtained from cancer patients and healthy subjects was verified by flow cytometry with FITC-labeled HLA-A2 mAb BB7.2 (BD Pharmingen, San Diego, Calif., USA).
PBMCs (1×10^5 cells/well) from either healthy subjects or prostate cancer patients were incubated with standard peptide concentrations of 20 μg/mL per peptide in 96-well U-bottom microplates (BD, Franklin Lakes, N.J., USA) in 200 μL of T-cell medium (TCM), consisting of RPMI 1640 (Mediatech, Manassas, Va., USA), 10% human AB serum (Valley Biomedical, Winchester, USA), 50 μM of 2-mercaptoethanol, 100 U/mL of interleukin-2 (IL-2), and 0.1 mM MEM nonessential amino acid solution (Invitrogen, Grand Island, N.Y., USA). Half of the TCM was removed and replaced with fresh TCM containing peptides (20 μg/mL) every 5 days. After 14 days of culture, the cells were harvested and tested for their ability to produce IFN-γ in response to T2 cells (1×10^4 cells/well), which were pre-loaded with either PSGR peptide (5 μg/mL) or a control peptide (an irrelevant HL-A2 binding peptide: NLLTHVESL) as a negative control. After 18 hours of incubation, supernatants were collected, and IFN-γ release was determined by ELISA assay.
Cytokine release was measured by coating 96-well ELISA plates (Thermo Fisher Scientific; Rochester, N.Y., USA) with 1 μg/mL anti-human IFN-γ (Pierce Biotechnology; Rockford, Ill., USA) overnight at 4° C. The plate was washed six times with PBS containing 0.05% Tween-20 (wash solution) to remove unbound coating antibody, and blocked with 1% BSA/PBS at room temperature for 2 hrs. Afterwards, 50 μL supernatant was added to each well and incubated at room temperature for 1 hr, then 50 μL of 0.5 μg/mL biotinylated anti-human IFN-γ (Pierce Biotechnology; Rockford, Ill., USA) was added and plates were incubated for an additional 1 hr at room temperature. After incubation, plates were washed and incubated for 30 min with Poly-HRP-Streptavidin (Thermo Fisher Scientific; Rochester, N.Y., USA) diluted 1:5000 in PBS/1% BSA. Plates were washed and 100 μL of TMB substrate solution (Sigma-Aldrich Co.; St. Louis, Mo., USA) was added per well. The colorimetric reaction was stopped using 2N H2SO4 and plates were read at 450 nm using an ELISA plate reader.
To determine whether PSGR-reactive T cell precursors are present in healthy subjects, we obtained PBMCs from 10 HLA-A2+ healthy donors and stimulated them in vitro with each of the 21 PSGR-derived peptides containing HLA-A2-binding motif (Table 1). After 2 weeks of peptide stimulation, supernatants from peptide-stimulated T cells were analyzed by ELISA assay to detect IFN-γ release in response to T2 cells pulsed with or without corresponding peptides.

Row | Sequence | concentrations of IFN-γ in the supernatants (healthy subject #1) [pg/mL] | concentrations of IFN-γ in the supernatants (healthy subject #2) [pg/mL] | concentrations of IFN-γ in the supernatants (healthy subject #3) [pg/mL] | concentrations of IFN-γ in the supernatants (healthy subject #4) [pg/mL] | concentrations of IFN-γ in the supernatants (healthy subject #5) [pg/mL] | concentrations of IFN-γ in the supernatants (healthy subject #6) [pg/mL]
1 | CMLSGIDILI (PSGR17) | 0 | 0 | 0 | 0 | 0 | 0
2 | YLIAVLGNLT (PSGR16) | 602 | 0 | 0 | 0 | 163 | 0
3 | SLHEPMYIFL (PSGR19) | 0 | 0 | 0 | 0 | 195 | 0
4 | LLAMAFDRYV (PSGR20) | 0 | 0 | 0 | 0 | 0 | 0
5 | KLACDDIRV (PSGR2) | 0 | 0 | 455 | 0 | 0 | 0
6 | CLHQDVMKL [PSGR7] | 0 | 0 | 0 | 0 | 168 | 0
7 | GLEEAQFWLA (PSGR12) | 0 | 139 | 0 | 246 | 0 | 432
8 | VLGNLTIIYI (PSGR21) | 0 | 291 | 0 | 0 | 300 | 377
9 | YVPFIGLSMV (PSGR24) | 0 | 0 | 0 | 0 | 0 | 0
10 | TLPRVTKIGV (PSGR23) | 0 | 0 | 0 | 0 | 0 | 0
11 | ALMAPLPVFI (PSGR13) | 0 | 0 | 0 | 0 | 0 | 0
12 | FIFYVPFIGL (PSGR22) | 289 | 0 | 0 | 0 | 0 | 0
13 | HVCAVFIFYV (PSGR11) | 0 | 0 | 0 | 0 | 0 | 0
